Results: PubChem BioAssay (NCI)
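Cells were grown in 96-well plates and exposed to each compound for 48 hours at five concentrations; endpoints were interpolated linearly between bracketing concentrations, or set to the highest concentration if not reached. At the GI50, growth is halved. The concentration for full growth arrest is given as TGI.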

Legend:
Experiment in all cases: NCI anticancer screen, dose series, 48 h; in the data active = GI50 below about 0.43 µM; inactive = the rest
786-0 renal = tested on: 786-0 renal
A498 renal = tested on: A498 renal
A549 NSCLC = tested on: A549 NSCLC
ACHN renal = tested on: ACHN renal
BT-549 breast = tested on: BT-549 breast
CAKI-1 renal = tested on: CAKI-1 renal
CCRF-CEM leukemia = tested on: CCRF-CEM leukemia
COLO 205 colon = tested on: COLO 205 colon
DU-145 prostate = tested on: DU-145 prostate
HCC-2998 colon = tested on: HCC-2998 colon
HCT-116 colon = tested on: HCT-116 colon
HCT-15 colon = tested on: HCT-15 colon
HL-60(TB) leukemia = tested on: HL-60(TB) leukemia
HOP-62 NSCLC = tested on: HOP-62 NSCLC
HOP-92 NSCLC = tested on: HOP-92 NSCLC
HS 578T breast = tested on: HS 578T breast
HT29 colon = tested on: HT29 colon
IGROV1 ovarian = tested on: IGROV1 ovarian
K-562 leukemia = tested on: K-562 leukemia
KM12 colon = tested on: KM12 colon
LOX IMVI melanoma = tested on: LOX IMVI melanoma
M14 melanoma = tested on: M14 melanoma
MALME-3M melanoma = tested on: MALME-3M melanoma
MCF7 breast = tested on: MCF7 breast
MDA-MB-231 breast = tested on: MDA-MB-231 breast
MDA-MB-435 = tested on: MDA-MB-435
MOLT-4 leukemia = tested on: MOLT-4 leukemia
NCI-H226 lung = tested on: NCI-H226 lung
NCI-H23 lung = tested on: NCI-H23 lung
NCI-H460 lung = tested on: NCI-H460 lung
NCI-H522 lung = tested on: NCI-H522 lung
NCI/ADR-RES ovarian = tested on: NCI/ADR-RES ovarian
OVCAR-3 ovarian = tested on: OVCAR-3 ovarian
OVCAR-4 ovarian = tested on: OVCAR-4 ovarian
OVCAR-5 ovarian = tested on: OVCAR-5 ovarian
OVCAR-8 ovarian = tested on: OVCAR-8 ovarian
PC-3 prostate = tested on: PC-3 prostate
RPMI-8226 leukemia = tested on: RPMI-8226 leukemia
RXF 393 renal = tested on: RXF 393 renal
SF-268 CNS = tested on: SF-268 CNS
SF-295 CNS = tested on: SF-295 CNS
SF-539 CNS = tested on: SF-539 CNS
SK-MEL-2 melanoma = tested on: SK-MEL-2 melanoma
SK-MEL-28 melanoma = tested on: SK-MEL-28 melanoma
SK-OV-3 ovarian = tested on: SK-OV-3 ovarian
SN12C renal = tested on: SN12C renal
SNB-19 CNS = tested on: SNB-19 CNS
SNB-75 CNS = tested on: SNB-75 CNS
SR leukemia = tested on: SR leukemia
SW-620 colon = tested on: SW-620 colon
TK-10 renal = tested on: TK-10 renal
U251 CNS = tested on: U251 CNS
UACC-257 melanoma = tested on: UACC-257 melanoma
UACC-62 melanoma = tested on: UACC-62 melanoma
UO-31 renal = tested on: UO-31 renal

Cc1cc(C)c(C#N)c(SCC(=O)c2sc3c(C#N)c(C)cc(C)[n+]3c2[O-])n1
2070 nM: TGI (A498 renal)
17800 nM: TGI (NCI/ADR-RES ovarian)
inactive: GI50 (786-0 renal) 692 nM | GI50 (A549 NSCLC) 474 nM | GI50 (ACHN renal) 725 nM | GI50 (BT-549 breast) 859 nM | GI50 (CAKI-1 renal) 617 nM | GI50 (DU-145 prostate) 472 nM | GI50 (HCC-2998 colon) 867 nM | GI50 (HOP-62 NSCLC) 4170 nM | GI50 (HOP-92 NSCLC) 514 nM | GI50 (IGROV1 ovarian) 1100 nM | GI50 (LOX IMVI melanoma) 750 nM | GI50 (MALME-3M melanoma) 4240 nM | GI50 (MDA-MB-231 breast) 890 nM | GI50 (MOLT-4 leukemia) 596 nM | GI50 (NCI-H226 lung) 1330 nM | GI50 (NCI-H23 lung) 697 nM | GI50 (OVCAR-4 ovarian) 2240 nM | GI50 (OVCAR-5 ovarian) 607 nM | GI50 (OVCAR-8 ovarian) 513 nM | GI50 (PC-3 prostate) 436 nM | GI50 (RPMI-8226 leukemia) 491 nM | GI50 (SF-268 CNS) 1130 nM | GI50 (SK-MEL-2 melanoma) 624 nM | GI50 (SK-MEL-28 melanoma) 1410 nM | GI50 (SK-OV-3 ovarian) 678 nM | GI50 (SN12C renal) 534 nM | GI50 (SNB-19 CNS) 504 nM | GI50 (TK-10 renal) 1500 nM | GI50 (UACC-257 melanoma) 531 nM | GI50 (UACC-62 melanoma) 559 nM | GI50 (UO-31 renal) 1140 nM
active: GI50 (A498 renal) 135 nM | GI50 (CCRF-CEM leukemia) 333 nM | GI50 (COLO 205 colon) 383 nM | GI50 (HCT-116 colon) 367 nM | GI50 (HCT-15 colon) 242 nM | GI50 (HL-60(TB) leukemia) 277 nM | GI50 (HS 578T breast) 335 nM | GI50 (HT29 colon) 329 nM | GI50 (K-562 leukemia) 376 nM | GI50 (KM12 colon) 401 nM | GI50 (M14 melanoma) 309 nM | GI50 (MCF7 breast) 166 nM | GI50 (MDA-MB-435) 97.9 nM | GI50 (NCI-H460 lung) 362 nM | GI50 (NCI-H522 lung) 244 nM | GI50 (NCI/ADR-RES ovarian) 366 nM | GI50 (OVCAR-3 ovarian) 340 nM | GI50 (RXF 393 renal) 238 nM | GI50 (SF-295 CNS) 307 nM | GI50 (SF-539 CNS) 88.1 nM | GI50 (SNB-75 CNS) 336 nM | GI50 (SR leukemia) 228 nM | GI50 (SW-620 colon) 340 nM | GI50 (U251 CNS) 374 nM
777 nM: TGI (RXF 393 renal)
> 100000 nM: TGI (A549 NSCLC) | TGI (ACHN renal) | TGI (BT-549 breast) | TGI (CAKI-1 renal) | TGI (CCRF-CEM leukemia) | TGI (HCC-2998 colon) | TGI (HCT-116 colon) | TGI (HCT-15 colon) | TGI (HOP-62 NSCLC) | TGI (HS 578T breast) | TGI (IGROV1 ovarian) | TGI (K-562 leukemia) | TGI (KM12 colon) | TGI (LOX IMVI melanoma) | TGI (MALME-3M melanoma) | TGI (MCF7 breast) | TGI (MDA-MB-231 breast) | TGI (MOLT-4 leukemia) | TGI (NCI-H226 lung) | TGI (NCI-H23 lung) | TGI (NCI-H460 lung) | TGI (OVCAR-4 ovarian) | TGI (OVCAR-5 ovarian) | TGI (OVCAR-8 ovarian) | TGI (PC-3 prostate) | TGI (RPMI-8226 leukemia) | TGI (SF-268 CNS) | TGI (SK-MEL-28 melanoma) | TGI (SK-OV-3 ovarian) | TGI (SN12C renal) | TGI (SNB-19 CNS) | TGI (SR leukemia) | TGI (SW-620 colon) | TGI (TK-10 renal) | TGI (UACC-257 melanoma) | TGI (UACC-62 melanoma) | TGI (UO-31 renal)
> 50700 nM: TGI (HOP-92 NSCLC)
> 52600 nM: TGI (786-0 renal)
1080 nM: TGI (OVCAR-3 ovarian)
6250 nM: TGI (COLO 205 colon)
692 nM: TGI (NCI-H522 lung)
1760 nM: TGI (HT29 colon)
> 27200 nM: TGI (SNB-75 CNS)
> 29300 nM: TGI (SF-295 CNS)
98800 nM: TGI (U251 CNS)
892 nM: TGI (HL-60(TB) leukemia)
538 nM: TGI (MDA-MB-435)
501 nM: TGI (SF-539 CNS)
56200 nM: TGI (SK-MEL-2 melanoma)
